The values below come from patent US20010052137A1, “Axin domain-like polypeptide inhibitors of glycogen synthase kinase 3 beta activity and activators of wnt signaling” (Trustees of the University of Pennsylvania, priority 2000, published 2001).

Ends that are not written are not given here.

The subject of test [1] is GSK-3 beta. The test is described as follows: In ovo tau phosphorylation assay: GSK-3 beta and Xaxin constructs co-expressed in Xenopus oocytes. It is filed as cell-based. Conditions: construct co-expressed with GSK-3 beta in Xenopus oocytes; tau microinjected; PHF-1 immunoblot. The method, then:
Stage VI Xenopus oocytes were isolated by collagenase treatment (Smith et al., 1994, Meth. Cell Biol. 36:45-58) and were injected with mRNA prepared by in vitro transcription (mMessage Machine™; Ambion, Austin, Tex.). 10 nanoliters of mRNA (containing 1-2 nanograms per nanoliter) was injected for each construct (unless otherwise specified), and the injected oocytes were incubated for 16 hours at 18° C. To analyze the effects of Xaxin constructs on dorsal-ventral pattern formation, Xenopus embryos were injected with 10 nanoliters of mRNA (0.1-0.2 nanogram per nanoliter) into one dorsal or ventral cell of a 4 cell embryo and dorsal axes were assessed at the tadpole stage. For Xaxin co-immunoprecipitation, fertilized eggs were injected with 10 nanoliters of Xaxin tagged with Myc, with hemagglutinin, or with both Myc and hemagglutinin (1 nanogram per nanoliter) and harvested at the blastula stage (stage 8).
In ovo phosphorylation of tau by GSK-3 beta was performed by microinjection of tau protein into oocytes expressing GSK-3 beta and Xaxin constructs. After 90 minutes, oocytes were homogenized and tau phosphorylation was analyzed in western blots using phospho-specific antibodies as described (Hedgepeth et al., 1997, Develop. Biol. 185:82-91). In vitro assays for GSK-3 beta activity were performed as described (Klein et al., 1996, Proc. Natl. Acad. Sci. USA 93:8455-8459). Recombinant GID-2/his protein (described below) was purified by affinity chromatography and added to in vitro assays at selected concentrations. […]
GSK-3 beta was expressed in oocytes together with Myc-tagged full length Xaxin or with the amino-terminal (amino acid residues 63-288), GID-1 (amino acid residues 277-545), or carboxyl-terminal (amino acid residues 429-713) fragments of Xaxin, as depicted in FIG. 1A. Purified tau protein was then microinjected into the oocytes, and phosphorylation of tau was measured by immunoblotting using antibody PHF-1 or with antibodies that detect all (i.e. phosphorylated and non-phosphorylated) forms of tau. […]

The test system of test [2] is GSK-3 beta. In words: Co-immunoprecipitation of GSK-3 beta with Myc-tagged Xaxin constructs in Xenopus oocytes. Format: binding. As to conditions: Myc-tagged construct co-expressed with GSK-3 beta in Xenopus oocytes; anti-Myc IP, anti-GSK-3 beta blot.
Test [3] relates to LEF-1 dependent transcription (wnt signaling). The test is described as follows: LEF-luciferase reporter of wnt signaling in 293T cells. It is filed as cell-based. As to conditions: at 37°. The method, then: LEF-1 (also designated tcf) is a DNA-binding protein that also binds with beta-catenin. The beta-catenin/LEF-1 complex is known to activate transcription of wnt target genes. A genetic construct was made which comprised this LEF-1-binding promoter operably linked with a luciferase gene, for use as a reporter of wnt signaling.
Single plasmids encoding individual GID fragments were transfected into 293T cells, together with the LEF-luciferase reporter, and luciferase activity was measured after 24 hours. GID fragments induced up to 100- to 250-fold activation of LEF-luciferase (normalized to activity from the mutated LEF-reporter control, which was activated less than 2-fold).
In general terms: Reporter assays use an easily measured gene product as a stand-in for the process of interest.

For the substance “GID-3: Myc-tagged fragment, Xaxin amino acid residues 320-375 (DSEQQSMSSDADTMSLTDSSVDGIPPYRLRKHYRREMQESANANGRGPLPHIPRTY; also: Myc-tagged fragment)”, in the test on GSK-3 beta [1], the “GSK-3 beta-mediated tau phosphorylation (GSK-3 beta activity)” value (“GSK-3 beta-mediated tau phosphorylation” below) was “no effect”. Besides, the “binding with GSK-3 beta (co-immunoprecipitation)” value (shortened to “binding with GSK-3 beta”) with GSK-3 beta [2] is “did not bind”.

With “GID5-6FY: GID mutant in which phenylalanine-388 is replaced with a tyrosine residue (DIHVDPEKYAAELISRLEGVLRDRE)”, in test [3], the “reduction of activity in LEF-luciferase assay compared to wild-type” value was “approximately 10 fold”.

Turning to “GID-6: Myc-tagged fragment, Xaxin amino acid residues 380-404 (SEQ ID NO: 1) (DIHVDPEKFAAELISRLEGVLRDRE; also: Myc tag)”, in the test with GSK-3 beta [1], the “GSK-3 beta-mediated tau phosphorylation” value was “inhibited”. Further, the “binding with GSK-3 beta” value with GSK-3 beta [2] is “bound”.

With “GID-5: Myc-tagged fragment, Xaxin amino acid residues 380-429 (DIHVDPEKFAAELISRLEGVLRDREAEQKLEERLKRVRAEEEGDDGDVSS; also: Myc-tagged fragment)”, the “GSK-3 beta-mediated tau phosphorylation” value in the test on GSK-3 beta [1] is “inhibited”. In the test on GSK-3 beta [2], the “binding with GSK-3 beta” value is listed as “bound”.
